O=C(NC(Cc1cc(=O)[nH]c2ccccc12)C(=O)O)c1ccc(Cl)cc1 (stereo not given)
Conditions	solubility (mole fraction)
in PEG-400, 288.15 K	0.00236
in PEG-400, 293.15 K	0.0025
in PEG-400, 298.15 K	0.00264
in PEG-400, 303.15 K	0.00278
in PEG-400, 308.15 K	0.00292

solubility (mole fraction)
Conditions	288.15 K	293.15 K	298.15 K	303.15 K	308.15 K
in acetone	1.01e-05	1.2e-05	1.43e-05	1.7e-05	2e-05
in acetonitrile	8.25e-07	1.07e-06	1.38e-06	1.74e-06	2.2e-06
in ethanol	7.58e-05	8.61e-05	9.68e-05	0.000109	0.000122
in ethyl acetate	1.91e-06	2.21e-06	2.56e-06	2.94e-06	3.38e-06
in glycerin	2.97e-06	3.45e-06	4.02e-06	4.63e-06	5.35e-06
in isopropanol	3.82e-05	4.75e-05	5.83e-05	7.17e-05	8.79e-05
in methanol	7.56e-05	8.55e-05	9.59e-05	0.000107	0.00012
in n-butanol	5.47e-05	6.51e-05	7.73e-05	9.12e-05	0.000107
in n-propanol	6.1e-05	7.1e-05	8.24e-05	9.55e-05	0.000109
in propylene glycol	0.000204	0.000224	0.000246	0.000268	0.000291
in water	5.17e-07	6.74e-07	8.69e-07	1.12e-06	1.43e-06
